Here are results for 23 molecules from US20250215012A1, “IKZF2 DEGRADERS AND USES THEREOF” (REGENTS OF THE UNIVERSITY OF MICHIGAN, priority 2022, published 2025).

The assay concerns the target IKZF2 (Homo sapiens (Human), UniProt Q96SW2+Q9UKS7). The experiment in a line: IKZF2 HiBiT Assay (Jurkat-IKZF2-HiBiT cell line). It is filed as cell-based. The settings on record: Jurkat-IKZF2-HiBiT cells, 24 hours; for DC50: read-out: HiBit assay degradation analysis DC50; for Dmax: read-out: HiBit assay degradation analysis Dmax. In short, it runs like this: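 Jurkat cells carrying HiBiT-tagged IKZF2 were exposed to serially diluted compound for 24 h at 37 °C. Remaining IKZF2 was measured by Nano-Glo HiBiT lytic luminescence after 10-20 min at room temperature. Signal was normalized to DMSO, and IC50 came from a four-parameter variable-slope fit.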
For orientation: HiBiT is a short tag that completes a luciferase, so light tracks the accessible tagged protein.

Some results are limits rather than exact numbers.

IKZF2, sequence (Q9UKS7 whole entry): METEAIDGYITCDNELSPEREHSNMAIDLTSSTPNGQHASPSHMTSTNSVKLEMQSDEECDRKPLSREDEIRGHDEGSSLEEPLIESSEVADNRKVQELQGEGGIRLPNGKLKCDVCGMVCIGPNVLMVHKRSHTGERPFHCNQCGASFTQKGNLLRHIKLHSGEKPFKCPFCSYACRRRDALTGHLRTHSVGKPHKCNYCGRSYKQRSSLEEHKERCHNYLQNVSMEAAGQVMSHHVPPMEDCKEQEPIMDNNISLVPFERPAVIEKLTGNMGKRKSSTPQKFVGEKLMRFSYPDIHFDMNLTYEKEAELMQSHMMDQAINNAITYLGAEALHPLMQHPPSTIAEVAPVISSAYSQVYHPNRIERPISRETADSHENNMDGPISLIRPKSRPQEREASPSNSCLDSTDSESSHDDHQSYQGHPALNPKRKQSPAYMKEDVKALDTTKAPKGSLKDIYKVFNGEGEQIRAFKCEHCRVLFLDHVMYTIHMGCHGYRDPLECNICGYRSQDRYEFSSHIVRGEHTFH
IKZF2, sequence (Q96SW2 whole entry): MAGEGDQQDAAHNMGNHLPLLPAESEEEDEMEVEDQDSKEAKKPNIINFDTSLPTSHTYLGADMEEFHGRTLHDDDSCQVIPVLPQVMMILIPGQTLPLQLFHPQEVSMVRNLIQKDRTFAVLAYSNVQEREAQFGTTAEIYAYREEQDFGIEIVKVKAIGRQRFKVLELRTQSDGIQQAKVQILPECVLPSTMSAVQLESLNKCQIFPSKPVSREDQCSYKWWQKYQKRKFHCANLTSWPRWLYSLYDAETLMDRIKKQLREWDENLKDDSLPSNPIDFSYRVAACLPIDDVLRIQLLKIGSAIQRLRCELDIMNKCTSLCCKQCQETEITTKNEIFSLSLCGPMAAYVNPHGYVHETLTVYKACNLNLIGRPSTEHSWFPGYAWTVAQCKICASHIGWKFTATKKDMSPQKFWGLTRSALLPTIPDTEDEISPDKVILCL
IKZF2, sequence (Q16531 whole entry partner): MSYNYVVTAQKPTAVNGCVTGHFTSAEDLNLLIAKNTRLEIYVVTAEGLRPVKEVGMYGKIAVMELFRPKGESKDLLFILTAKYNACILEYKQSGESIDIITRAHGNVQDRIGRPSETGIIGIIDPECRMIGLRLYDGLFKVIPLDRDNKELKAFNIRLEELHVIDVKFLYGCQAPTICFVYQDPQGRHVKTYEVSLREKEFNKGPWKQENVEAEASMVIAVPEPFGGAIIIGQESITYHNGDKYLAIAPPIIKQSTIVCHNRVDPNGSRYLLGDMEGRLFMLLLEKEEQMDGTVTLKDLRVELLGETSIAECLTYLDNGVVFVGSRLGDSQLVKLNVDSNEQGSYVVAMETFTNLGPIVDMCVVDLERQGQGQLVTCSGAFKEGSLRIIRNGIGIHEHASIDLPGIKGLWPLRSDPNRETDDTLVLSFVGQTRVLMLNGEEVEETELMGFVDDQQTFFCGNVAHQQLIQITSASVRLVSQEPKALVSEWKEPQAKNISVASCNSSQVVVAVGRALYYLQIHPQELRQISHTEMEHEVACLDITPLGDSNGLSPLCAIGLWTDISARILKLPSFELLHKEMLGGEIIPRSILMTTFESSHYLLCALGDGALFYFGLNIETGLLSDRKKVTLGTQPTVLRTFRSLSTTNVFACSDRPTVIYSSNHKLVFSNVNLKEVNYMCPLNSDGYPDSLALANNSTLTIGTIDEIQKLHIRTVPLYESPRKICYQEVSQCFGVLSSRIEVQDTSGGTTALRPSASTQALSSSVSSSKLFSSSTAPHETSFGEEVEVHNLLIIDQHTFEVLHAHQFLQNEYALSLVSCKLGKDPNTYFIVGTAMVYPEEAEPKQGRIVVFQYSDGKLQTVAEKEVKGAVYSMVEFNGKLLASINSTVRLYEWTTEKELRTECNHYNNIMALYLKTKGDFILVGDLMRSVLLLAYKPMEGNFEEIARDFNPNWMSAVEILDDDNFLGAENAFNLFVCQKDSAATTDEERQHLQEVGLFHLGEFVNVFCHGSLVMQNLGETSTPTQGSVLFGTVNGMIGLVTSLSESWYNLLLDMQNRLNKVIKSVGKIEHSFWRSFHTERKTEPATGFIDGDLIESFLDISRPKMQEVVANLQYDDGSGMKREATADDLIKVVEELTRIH

For the molecule `Cn1cc(-c2cccc(CN3CCC4(CC3)OCc3c4ccc4c3CN(C3CCC(=O)NC3=O)C4=O)c2)cn1` (stereo not shown) [Compound A259, 3-(1′-(3-(1-methyl-1H-pyrazol-4-yl)benzyl)-6-oxo-6,8-dihydrospiro[furo[3,4-e]isoindoline-3,4′-piperidin]-7(1H)-yl)piperidine-2,6-dione], the half-maximal degradation concentration (DC50) (commonly the midpoint of the concentration-degradation curve) is over 0.5 µM and the Dmax (as a rule, the largest share of the target that was removed) was in the range of 40 to 60%.

For `O=C1CCC(N2Cc3c(ccc4c3COC43CCN(Cc4cccc(-c5cc[nH]n5)c4)CC3)C2=O)C(=O)N1` (stereo not shown) [Compound A260, 3-(1′-(3-(1H-pyrazol-3-yl)benzyl)-6-oxo-6,8-dihydrospiro[furo[3,4-e]isoindoline-3,4′-piperidin]-7(1H)-yl)piperidine-2,6-dione], the DC50 is over 0.5 µM and the greatest degradation seen (Dmax) fell in the range of 40 to 60%.

On to `O=C1CCC(N2Cc3c(ccc4c3OCC43CCN(Cc4cccc(NS(=O)(=O)c5ccccc5)c4)CC3)C2=O)C(=O)N1` (stereo not shown) [Compound A261, N-(3-((7-(2,6-dioxopiperidin-3-yl)-6-oxo-7,8-dihydro-2H,6H-spiro[furo[2,3-e]isoindole-3,4′-piperidin]-1′-yl)methyl)phenyl)benzenesulfonamide], for which the half-maximal degradation concentration (DC50) was over 0.5 µM and the Dmax was under 40%.

`COc1ccc(C(=O)Nc2cccc(CN3CCC4(CC3)OCc3c4ccc4c3CN(C3CCC(=O)NC3=O)C4=O)c2)cc1` (stereo not shown) [Compound A262]: the DC50 was under 0.05 µM and the greatest degradation seen (Dmax) fell in the range of 60 to 80%.

Take `Cc1ccc(C(=O)Nc2cccc(CN3CCC4(CC3)OCc3c4ccc4c3CN(C3CCC(=O)NC3=O)C4=O)c2)cc1` (stereo not shown) [Compound A263, N-(3-((7-(2,6-dioxopiperidin-3-yl)-6-oxo-1,6,7,8-tetrahydrospiro[furo[3,4-e]isoindole-3,4′-piperidin]-1′-yl)methyl)phenyl)-4-methylbenzamide]: the half-maximal degradation concentration (DC50) is under 0.05 µM and the Dmax lay in the range of 60 to 80%.

For `O=C1CC[C@H](N2Cc3c(ccc4c3OCC43CCN(Cc4cccc(-c5cnn(C6COC6)c5)c4)CC3)C2=O)C(=O)N1` [Compound A265, (S)-3-(1′-(3-(1-(oxetan-3-yl)-1H-pyrazol-4-yl)benzyl)-6-oxo-6,8-dihydro-2H,7H-spiro[furo[2,3-e]isoindole-3,4′-piperidin]-7-yl)piperidine-2,6-dione], the DC50 is under 0.05 µM and the Dmax lay within 60 to 80%.

On to `Cn1ccc(-c2cccc(CN3CCC4(CC3)COc3c4ccc4c3CN([C@H]3CCC(=O)NC3=O)C4=O)c2)n1` [Compound A267, (S)-3-(1′-(3-(1-methyl-1H-pyrazol-3-yl)benzyl)-6-oxo-6,8-dihydro-2H,7H-spiro[furo[2,3-e]isoindole-3,4′-piperidin]-7-yl)piperidine-2,6-dione], for which the DC50 was under 0.05 µM and the greatest degradation seen (Dmax) fell in the range of 60 to 80%.

For the molecule `O=C1CC[C@H](N2Cc3c(ccc4c3OCC43CCN(Cc4cccc(-c5cnn(C6CC6)c5)c4)CC3)C2=O)C(=O)N1` [Compound A268, (S)-3-(1′-(3-(1-cyclopropyl-1H-pyrazol-4-yl)benzyl)-6-oxo-6,8-dihydro-2H,7H-spiro[furo[2,3-e]isoindole-3,4′-piperidin]-7-yl)piperidine-2,6-dione], the half-maximal degradation concentration (DC50) was under 0.05 µM and the Dmax was 60 to 80%.

As to `O=C1CC[C@H](N2Cc3c(ccc4c3OCC43CCN(Cc4cccc(-c5cnn([C@H]6CCOC6)c5)c4)CC3)C2=O)C(=O)N1` [Compound A269, (S)-3-(6-oxo-1′-(3-(1-((S)-tetrahydrofuran-3-yl)-1H-pyrazol-4-yl)benzyl)-6,8-dihydro-2H,7H-spiro[furo[2,3-e]isoindole-3,4′-piperidin]-7-yl)piperidine-2,6-dione], the 50% degradation concentration (DC50) lay in the range of 0.05 to 0.2 µM and the Dmax was in the range of 60 to 80%.

Regarding `O=C1CC[C@H](N2Cc3c(ccc4c3OCC43CCN(Cc4cccc(-c5cnn([C@@H]6CCOC6)c5)c4)CC3)C2=O)C(=O)N1` [Compound A270, (S)-3-(6-oxo-1′-(3-(1-((R)-tetrahydrofuran-3-yl)-1H-pyrazol-4-yl)benzyl)-6,8-dihydro-2H,7H-spiro[furo[2,3-e]isoindole-3,4′-piperidin]-7-yl)piperidine-2,6-dione], the DC50 is under 0.05 µM and the Dmax is 60 to 80%.

Turning to `O=C1CC[C@H](N2Cc3c(ccc4c3OCC43CCN(Cc4cccc(-c5cnn(CC6COC6)c5)c4)CC3)C2=O)C(=O)N1` [Compound A271, (S)-3-(1′-(3-(1-(oxetan-3-ylmethyl)-1H-pyrazol-4-yl)benzyl)-6-oxo-6,8-dihydro-2H,7H-spiro[furo[2,3-e]isoindole-3,4′-piperidin]-7-yl)piperidine-2,6-dione], the DC50 was over 0.5 µM and the greatest degradation seen (Dmax) is under 40%.

As for `O=C1CC[C@H](N2Cc3c(ccc4c3OCC43CCN(Cc4cccc(-c5cnn(C[C@@H]6COCCO6)c5)c4)CC3)C2=O)C(=O)N1` [Compound A272, (S)-3-(1′-(3-(1-(((R)-1,4-dioxan-2-yl)methyl)-1H-pyrazol-4-yl)benzyl)-6-oxo-6,8-dihydro-2H,7H-spiro[furo[2,3-e]isoindole-3,4′-piperidin]-7-yl)piperidine-2,6-dione], the DC50 lay within 0.05 to 0.2 µM and the greatest degradation seen (Dmax) is 60 to 80%.

`O=C1CC[C@H](N2Cc3c(ccc4c3OCC43CCN(Cc4cccc(-c5cnn(C[C@H]6CCO6)c5)c4)CC3)C2=O)C(=O)N1` [Compound A273, (S)-3-(1′-(3-(1-(((R)-oxetan-2-yl)methyl)-1H-pyrazol-4-yl)benzyl)-6-oxo-6,8-dihydro-2H,7H-spiro[furo[2,3-e]isoindole-3,4′-piperidin]-7-yl)piperidine-2,6-dione]: the DC50 fell in the range of 0.05 to 0.2 µM and the Dmax was 60 to 80%.

As to `O=C1CC[C@H](N2Cc3c(ccc4c3OCC43CCN(Cc4cccc(-c5cnn(C[C@@H]6CCO6)c5)c4)CC3)C2=O)C(=O)N1` [Compound A274, (S)-3-(1′-(3-(1-(((S)-oxetan-2-yl)methyl)-1H-pyrazol-4-yl)benzyl)-6-oxo-6,8-dihydro-2H,7H-spiro[furo[2,3-e]isoindole-3,4′-piperidin]-7-yl)piperidine-2,6-dione], the 50% degradation concentration (DC50) lay in the range of 0.05 to 0.2 µM and the Dmax fell in the range of 60 to 80%.

`O=C1CC[C@H](N2Cc3c(ccc4c3OCC43CCN(C4Cc5ccccc5C4)CC3)C2=O)C(=O)N1` [Compound A275, (S)-3-(1′-(2,3-dihydro-1H-inden-2-yl)-6-oxo-6,8-dihydro-2H,7H-spiro[furo[2,3-e]isoindole-3,4′-piperidin]-7-yl)piperidine-2,6-dione]: the DC50 is over 0.5 µM and the maximal degradation (Dmax) lay in the range of 40 to 60%.

`O=C1CC[C@H](N2Cc3c(ccc4c3OCC43CCN(Cc4cc(F)cc(-c5cnn(C6COC6)c5)c4)CC3)C2=O)C(=O)N1` [Compound A276, (S)-3-(1′-(3-fluoro-5-(1-(oxetan-3-yl)-1H-pyrazol-4-yl)benzyl)-6-oxo-6,8-dihydro-2H,7H-spiro[furo[2,3-e]isoindole-3,4′-piperidin]-7-yl)piperidine-2,6-dione]: the half-maximal degradation concentration (DC50) is under 0.05 µM and the Dmax fell in the range of 40 to 60%.

For `COc1cc(CN2CCC3(CC2)COc2c3ccc3c2CN([C@H]2CCC(=O)NC2=O)C3=O)cc(-c2cnn(C3COC3)c2)c1` [Compound A277], the 50% degradation concentration (DC50) was under 0.05 µM and the Dmax was over 80%.

For the molecule `O=C1CC[C@H](N2Cc3c(ccc4c3OCC43CCN(Cc4cccc(NC(=O)C(F)(F)F)c4)CC3)C2=O)C(=O)N1` [Compound A278, (S)-N-(3-((7-(2,6-dioxopiperidin-3-yl)-6-oxo-7,8-dihydro-2H,6H-spiro[furo[2,3-e]isoindole-3,4′-piperidin]-1′-yl)methyl)phenyl)-2,2,2-trifluoroacetamide], the DC50 was under 0.05 µM and the maximal degradation (Dmax) was over 80%.

Turning to `Cc1cc(CN2CCC3(CC2)COc2c3ccc3c2CN([C@H]2CCC(=O)NC2=O)C3=O)cc(-c2cnn(C3COC3)c2)c1` [Compound A279, (S)-3-(1′-(3-methyl-5-(1-(oxetan-3-yl)-1H-pyrazol-4-yl)benzyl)-6-oxo-6,8-dihydro-2H,7H-spiro[furo[2,3-e]isoindole-3,4′-piperidin]-7-yl)piperidine-2,6-dione], the 50% degradation concentration (DC50) is under 0.05 µM and the Dmax is 60 to 80%.

For `COc1cc(CN2CCC3(CC2)COc2c3ccc3c2CN([C@H]2CCC(=O)NC2=O)C3=O)cc(-c2cnn(C)c2)c1` [Compound A280, (S)-3-(1′-(3-methoxy-5-(1-methyl-1H-pyrazol-4-yl)benzyl)-6-oxo-6,8-dihydro-2H,7H-spiro[furo[2,3-e]isoindole-3,4′-piperidin]-7-yl)piperidine-2,6-dione], the half-maximal degradation concentration (DC50) is under 0.05 µM and the Dmax is over 80%.

As to `O=C1CC[C@H](N2Cc3c(ccc4c3OCC43CCN(Cc4cccc(-c5cnn(C(F)F)c5)c4)CC3)C2=O)C(=O)N1` [Compound A281, (S)-3-(1′-(3-(1-(difluoromethyl)-1H-pyrazol-4-yl)benzyl)-6-oxo-6,8-dihydro-2H,7H-spiro[furo[2,3-e]isoindole-3,4′-piperidin]-7-yl)piperidine-2,6-dione], the DC50 is under 0.05 µM and the Dmax was over 80%.

On to `O=C1CC[C@H](N2Cc3c(ccc4c3OCC43CCN(Cc4cccc(-c5cnn(C(F)(F)F)c5)c4)CC3)C2=O)C(=O)N1` [Compound A282, (S)-3-(6-oxo-1′-(3-(1-(trifluoromethyl)-1H-pyrazol-4-yl)benzyl)-6,8-dihydro-2H,7H-spiro[furo[2,3-e]isoindole-3,4′-piperidin]-7-yl)piperidine-2,6-dione], for which the 50% degradation concentration (DC50) is under 0.05 µM and the Dmax was in the range of 60 to 80%.

As for `Cc1nn(C)cc1-c1cccc(CN2CCC3(CC2)COc2c3ccc3c2CN([C@H]2CCC(=O)NC2=O)C3=O)c1` [Compound A283, (S)-3-(1′-(3-(1,3-dimethyl-1H-pyrazol-4-yl)benzyl)-6-oxo-6,8-dihydro-2H,7H-spiro[furo[2,3-e]isoindole-3,4′-piperidin]-7-yl)piperidine-2,6-dione], the 50% degradation concentration (DC50) fell in the range of 0.05 to 0.2 µM and the Dmax was in the range of 60 to 80%.
